{
  "source": "patent US11197856B2",
  "about": "“Bicyclic compounds and methods for their use in treating autism” (priority 2013, dated 2021)",
  "key": {"[1]": {"test_system": "BAX", "assay": "PBBI in rats: BAX Western blotting", "type": "in vivo", "conditions": "24 hr, 3 and 7 days after PBBI", "source_text": "The unilateral frontal PBBI model, which mimics the ballistic dynamics of a bullet or fragment wound to the head (Williams, 2003; Williams, 2006), was induced by stereotactic insertion of a custom probe through the right frontal cortex. A temporary cavity was formed by the rapid inflation/deflation (i.e. <40 msec) of an elastic balloon attached to the end of the probe. The PBBI apparatus consisted of a computer-controlled hydraulic pressure generator (Mitre Corp McLean, Va.), a PBBI probe and a stereotaxic frame equipped with a custom-designed probe holder as previously described (Lu, 2009; Williams, 2003). The injury severity was determined by the size of the balloon under control of the computerized hydraulic pressure. The balloon diameter calibrated to 0.63 cm expansion represented 10% of the total rat brain volume thus expressing a 10% PBBI. All surgeries were done under anaesthesia. Groups tested: Sham+vehicle, PBBI+vehicle, PBBI+cG-2-AllylP (30 mg/kg by oral gavage, 30 min post-injury, and again once daily until endpoint). AU procedures were approved by the Institutional Animal Care and Use Committee of WRAIR. Animals were housed in a facility accredited by the AAALAC. […]\nSamples were analysed at 24 hr and 3 and 7 days post-injury for all groups (sham+vehicle, PBBI+vehicle, PBBI+cG-2-AllylP). […]"}, "[2]": {"test_system": "fmr1-knockout mice and wild-type mice", "assay": "Marble burying", "type": "in vivo", "description": "Mice were placed in an enclosed environment with a bed of wood shavings. Ten (10) marbles were introduced into the environment, and the number of marbles buried was determined by visual observation (median±interquartile range (IQR))."}, "[3]": {"test_system": "animals with scopolamine-induced memory impairment", "assay": "Morris Water Maze (MWM) test with scopolamine-induced memory impairment", "type": "in vivo, Wistar rats", "conditions": "30 mg/kg; daily; oral", "source_text": "The first part of the study involved acute testing of cG-2-AllylP in the Morris Water Maze Memory (MWM) model. The MWM test is one of the most frequently used tests for assessing spatial memory in rats and is well recognized to accurately predict effects of disease and treatment on spatial memory generally. Therefore, the MWM test reflects effects of disease and treatment in human subjects. The standard procedure for MWM was followed. We used a circular swimming pool (80 cm depth×150 cm diameter) filled with opaque water, with the temperature maintained at 20° C. […] On days 1-4 of the experiment rats underwent memory acquisition trials with 6 trials (60 seconds each) in each day of testing (habituation phase). Latency to reach the platform was recorded and the daily reduction of average latency was used to measure the capability to learn where the hidden platform was. […] Experimental groups are detailed in the Table 4 below. On […], the probe MWM test was performed with the platform removed. There were 6 trials, each of maximum duration of 60s, at least 3 min rest between trials). […] Data was collected and analysed using Any-maze (v4.2) software. The data generated from behavioural tests was analysed using one-way ANOVA for determining the difference between the aged-groups. […]"}, "[4]": {"test_system": "synaptophysin", "assay": "Synaptophysin immunohistochemical staining of hippocampus", "type": "in vivo, male Wistar rats", "conditions": "for density of synaptophysin staining: 28 days post-treatment", "description": "Aged rats (male Wistar rats, 18-20 months old) were divided into four groups: two vehicle-treated (groups 1 and 3) and two G-2-AllylP treated (groups 2 and 4) (all groups n=6-8). Cyclic G-2-AllylP was synthesised by the Department of Medicinal Chemistry and dissolved in normal saline before the treatment. On day 1 a single dose of cyclic G-2-AllylP was given centrally (20 ng/animal, i.c.v.) to the animals in groups 2 and 4; saline was administered to groups 1 and 3. The memory tests using Novel Object Recognition Test started either on day 3 (groups 1 and 2) or 24 (groups 3 and 4) after the treatment. On the completion of the NORT, the rats were killed with an overdose of sodium pentobarbital and were perfused transcardially with normal saline followed by 10% formalin. Tissues collected at day 7 in groups 1 and 2, and at day 28 from groups 3 and 4. The brains were kept in the same fixative for a minimum of 2 days before being processed using a standard paraffin embedding procedure. Briefly, small blocks (10×10×3 mm) of tissue were fixed for up to 24 hrs. The blocks were then infiltrated and embedded with paraffin and cut in ribbons and mounted on slides. Slides were then stored until immunostaining was commenced. Synaptogenesis in brain tissue was examined using immunohistochemical staining.\nSynaptophysin is a presynaptic vesicle protein. Its quantitative detection is established as a molecular marker of synaptic density.\nConventional deparaffinisation and rehydration techniques were used to allow the water-based buffers and antibodies to penetrate the tissue slices. Antigen retrieval was used only prior to AMPA receptor (GluR1) staining, i.e. the slides were placed in boiling citrate buffer and allowed to cool.\nThe following antibodies were used: • i) primary rabbit antibody to NMDA NR1 subunit, at 1:200 concentration in buffer, incubated for 48 hrs (Chemicon—AB1516), followed by Sigma fluorescent secondary antibody (alexaFluor 394), at 1:200 dilution, incubated for 24 hours at 40C. • ii) primary antibody to AMPA GluR1 subunit, at 1:30 concentration in buffer, incubated for 48 hrs (Chemicon—AB1504) followed by 3,3′-diaminobenzidine (DAB) at 1:200 dilution, incubated for 24 hours at 40C. • iii) Primary antibody to mSynaptophysin (Sigma—S5768), at 1:200 concentration in buffer, followed by DAB at 1:200 dilution, incubated for 24 hours at 40C. • iv) Primary antibody to rKrox-24 (Santa Cruz—catalogue number SC-189) at 1:200 concentration in the buffer, followed by anti-rabbit secondary antibody at concentration of 1:200 dilution, incubated for 24 hours at 40C. • y) Antibodies were detected using light microscopy.\nWe subsequently analysed effect of cG-2AllylP on the levels of synaptophysin staining in CA3 and CA1 regions of the hippocampus."}},
  "data": [
    {"smiles": "C=CC[C@]12CCCN1C(=O)CNC2=O", "note": "[cG-2-AllylP, (8aS)-Allyl-hexahydropyrrolo[1,2-a]pyrazine-1,4-dione]", "values": [
      {"measurement": "BAX levels", "setting": "[1]", "value": "did not significantly alter BAX"},
      {"measurement": "marbles buried", "setting": "[2]; fmr1-knockout animals", "value": 80, "unit": "%"},
      {"measurement": "number of marbles buried (median)", "setting": "[2]; fmr1-knockout animals", "value": "8 of 10 marbles"},
      {"measurement": "marbles buried", "setting": "[2]; wild-type mice", "value": 100, "unit": "%"},
      {"measurement": "number of marbles buried", "setting": "[2]; wild-type mice", "value": "10 out of 10"},
      {"measurement": "cognitive impairment induced by scopolamine (MWM)", "setting": "[3]", "value": "significantly reversed the cognitive impairment induced by scopolamine"},
      {"measurement": "density of synaptophysin staining", "setting": "[4]; CA1 strata oriens and radiatum", "value": "clear trend towards"},
      {"measurement": "density of synaptophysin staining", "setting": "[4]; CA3", "value": "significant increase"},
      {"measurement": "density of pre-synaptic stain (FIG. 6)", "setting": "[4]; CA3 region, day 24 post-treatment", "value": "trend to increase the density of pre-synaptic stain"},
      {"measurement": "density of pre-synaptic stain (FIG. 7)", "setting": "[4]; stratum oriens of CA1, day 24 post-treatment", "value": "trend to increase the density of the pre-synaptic stain"},
      {"measurement": "density of pre-synaptic stain (FIG. 8)", "setting": "[4]; stratum radiatum of CA1, day 24 post-treatment", "value": "increase the density of the pre-synaptic stain"}
    ]}
  ]
}
